In US8012751B2, “Differentiation of pluripotent embryonic stem cells” (Wisconsin Alumni Research Foundation, priority 2005, dated 2011):

Tests used:
human ES cells [1] = assay: Oct4 staining (flow cytometry / immunocytochemistry) of differentiation; type: cell-based
Experimental: (§1) H1 human ES cells (WiCell) were cultured as previously described and incorporated by reference herein (Amit et al., 2000). Human ES cells were cultured under feeder-free conditions on culture flasks that were pre-coated with matrigel™ (Becton Dickinson Labware, Bedford, MA), using medium conditioned overnight on dense murine embryonic fibroblasts (MEFs) (Xu et al., 2001a). D3 mouse ES cells (ATCC) were cultured under feeder-free conditions in mouse ES cell medium, consisting of 85% Knock-Out DMEM supplemented with 15% Gibco KNOCKOUT Serum Replacement, 2.5 mM glutamine, 0.1 mM beta-mercaptoethanol (Sigma), and 1000 U/l LIF (Esgro) on gelatin-coated plates. Murine and human fibroblasts and the 293T cell lines were cultivated in DMEM +10% Fetal bovine serum (FBS) and 1% non essential amino acids.
(§2) Cells were treated with trypsin/EDTA and washed with PBS (both reagents are available through Invitrogen Corp.) Dead cells were excluded from analysis by forward- and side-scatter gating. Eighteen samples were analyzed using a FACScan (Becton Dickinson) flow cytometer and Cellquest software (Becton Dickinson). A minimum of 50,000 events were acquired for each sample. For Oct4 expression studies cells were stained for Oct4 using monoclonal Oct4 antibody (1 μl/10^6 cells, available through Santa Cruz). Cells were analyzed by flow cytometry analysis in a fluorescence activated cell sorter. […]

human ES cells [2] = assay: cell proliferation assay (MTS test); type: cell-based
Experimental: Human ES cells were grown for the indicated time in 96-wells on Matrigel and a MTS test (CellTiter 96, Promega) was performed according to manufacturers′ instructions.
(§3) Human ES cells were plated out as small colonies on matrigel, mouse ES cells on gelatin. DEVD.fmk was added twice a day and half of the ES cell medium was changed daily. As a control, the same volume of DEVD.fmk solvent (DMSO) was added and no significant effect on the number of undifferentiated cells was observed. Recombinant TAT-caspase-3rev was added 4 hours after application of caspase blocker and equal volumes of TAT protein served as controls. Mouse embryos were treated once in the 50 μl microdrop with the given concentration of DEVD.fmk or post-incubation 4 hours later with recombinant TAT-caspase-3rev.

human ES cells [3] = assay: microarray gene expression analysis of DEVD.fmk treated cells; type: cell-based
From the text: Since ES cells differentiate relatively uniformly from their undifferentiated state into the spindle-shaped cells, we performed a microarray analysis of the differentiated human cells treated with DEVD.fmk. […] In both zebrafish and Xenopus, dickkopf genes have been associated with the development of mesoderm and endoderm. The identity of the differentiated cell type is most likely a common precursor of mesoderm and endoderm (“mesendoderm”).

mouse embryos = assay: embryo culture outgrowth experiments; conditions: treated embryos n=34
From the text: (§4) Three to nine-week-old female B6C3F1 mice (Charles Rivers) were superovulated with a single 10 IU intraperitoneal injection of Pregnant Mare's Serum Gonadotrophin (Gestyl, Diosynth B.V.—OSS). Forty-eight hours later, ovulation was triggered with a single 10 IU intraperitoneal injection of human Chorionic Gonadotrophin (hCG, Novarel/Ferring) and the female mice were mated with male BDF1 mice (Charles Rivers) of proven fertility. Two-cell stage embryos were flushed from the oviducts of the female mice 38 to 40 hours after the hCG injection using modified-Human Tubal Fluid medium (m-HTF, Irvine Scientific) supplemented with 0.5 mg/mL polyvinyl alcohol (PVA, Sigma). The resulting embryos were washed and cultured in the same medium. Groups of 10-15 embryos were cultured at 37° C. with 5% CO2/95% air in 50 μL drops of m-HTF medium covered with mineral oil (Ovoil, Vitrolife). In the outgrowth experiments, the zona pellucida was digested with pronase and embryos were plated out on gelatin in ES cell derivation medium with 1000 U/mL LIF.
(§5) Human ES cells were plated out as small colonies on matrigel, mouse ES cells on gelatin. DEVD.fmk was added twice a day and half of the ES cell medium was changed daily. As a control, the same volume of DEVD.fmk solvent (DMSO) was added and no significant effect on the number of undifferentiated cells was observed. […]

[4] = system: p85 fragment of PARP-1 in human ES cells; assay: Western immunoblotting for cleaved p85 PARP-1 fragment; type: cell-based; conditions: human ES cells treated with DEVD.fmk
Experimental: Cell lysates were collected from H1 Human ES cells grown on mouse embryonic fibroblasts, D3 Mouse ES cells, Human Foreskin Fibroblasts (HF), 19 MEFs, and apoptotic MEFs induced with 25 μl/ml of 3% H2O2. Cytosolic and mitochondrial lysates were isolated using the ApoAlert Cell Fractionation Kit (Clontech, Palo Alto, Calif.) and whole-cell lysates were isolated using M-PER Mammalian Protein Extraction Reagent (Pierce, Rockford, Ill.) with 1:1000 dilution of Protease Inhibitor Cocktail (Sigma) and Pefablock SC (final concentration 0.2 μg/ml)(Sigma). Lysates were run on SDS-PAGE gels, transferred to Trans-Blot Transfer Medium (Bio-Rad, Hercules, Calif.) and peroxidase-conjugated secondary antibodies were detected using Supersignal West Pico Chemiluminscent Substrate (Pierce). Cytochrome C was detected with 1:100 dilution of Cytochrome C Antibody (Clontech) and 1:2000 Goat Anti-Rabbit IgG (H+L) (Caltag Laboratories, Burlingame, Calif). COX4 was detected with dilutions of 1:1000 COX4 Antibody (Clontech) and 1:1000 Anti-mouse IgG (g)-Peroxidase (Roche, Basel, Switzerland). PARP was detected with dilutions of 1:400 anti-p85 PARP (rabbit polyclonal IgG) (Promega) and 1:5000 goat Anti-Rabbit IgG (H+L) (Caltag Laboratories).
Human ES cells were plated out as small colonies on matrigel, mouse ES cells on gelatin. DEVD.fmk was added twice a day and half of the ES cell medium was changed daily. […]

human ES cells [5] = assay: morphology and time of differentiation of treated ES cells; type: cell-based
Experimental: as §1
as §3, with “Mouse embryos were treated once in the 50 μl microdrop with the given concentration of DEVD.fmk or post-incubation 4 hours later with recombinant TAT-caspase-3rev.” left out

[6] = system: caspase-3-like activity in ES cells; assay: in vitro caspase-3 cell lysate assay; type: biochemical, human and mouse; conditions: treatment with DEVD.fmk
From the text: Activation of caspase-3 is widely considered a marker of the late stages of programmed cell death. In vivo, most of the caspase-3-like enzymatic activity is attributed to caspase-3 and -7. Applicants have therefore assayed caspase-3-like activity in undifferentiated human and mouse ES cell lines using an in vitro cell lysate assay (FIG. 1B, left). […] To further characterize the elevation of caspase-3-like activity in individual ES cells, applicants performed flow cytometry using an antibody specifically recognizing the activated form of caspase-3 (FIG. 1B, right). […] In ES cells, staining for activated caspase-3 was concentrated in the nucleus, with reduced staining in the cytosol (FIG. 1C). In intact embryos, moderate immunostaining of activated caspase-3 was present in all cells of the compacted morula, and in the ICM, but was largely absent in the trophectoderm (FIG. 1D).

mouse morulas = assay: development of pre-implantation embryos to expanded blastocysts
From the text: as §4, §5

[7] = system: PARP-1 activity in human ES cells; assay: in vitro PARP activity assay; type: cell-based; conditions: human ES cells treated with DEVD.fmk; p<0.01
Experimental: (§6) Apoptotic cells were detected using the Annexin-V binding kit (ApoAlert, Clontech) or the TUNEL assay kit (DeadEnd, Promega). PARP activity was determined according to a protocol published by Bakondi and others (Bakondi et al., 2002). In order to detect activated caspase-3 or cleaved p85 PARP-1, cells were fixed in CytoFix (BD), permeablized in CytoPerm, and incubated at 1 μg/ml of anti-active caspase-3 antibody (Cellsignalling) or with 1 μg/ml anti-p85 PARP-1 (Promega) overnight at 4° C. The cells were then washed with CytoPern and incubated with secondary anti-rabbit FITC conjugated antibodies (1:200 dilution) for 60 minutes at room temperature. Mouse embryos were fixed in methanol:DMSO (4:1) (Sigma) overnight at 4° C., re-hydrated in 50% methanol, and then incubated with the primary antibodies (anti-p85 PARP-1 or anti-active caspase-3) in PBS with 2% nonfat instant skim milk and 0.5% Triton-X 100 with gentle shaking overnight at 4° C. Embryos were washed 6 times for 5 minutes at room temperature in PBS with 2% nonfat instant skim milk and 0.5% Triton-X 100 with gentle shaking and incubated in the same way with the secondary fluorescent antibody. Cells and embryos were visualized using a confocal laserscan microscope (Leica) or flow cytometry.
Human ES cells were plated out as small colonies on matrigel, mouse ES cells on gelatin. […]

human ES cells [8] = assay: Annexin-V EGFP binding (programmed cell death); type: cell-based; conditions: p=0.0011
Experimental: as §6, with “Embryos were washed 6 times for 5 minutes at room temperature in PBS with 2% nonfat instant skim milk and 0.5% Triton-X 100 with gentle shaking and incubated in the same way with the secondary fluorescent antibody. Cells and embryos were visualized using a confocal laserscan microscope (Leica) or flow cytometry.” left out
as §2, with “A minimum of 50,000 events were acquired for each sample. For Oct4 expression studies cells were stained for Oct4 using monoclonal Oct4 antibody (1 μl/10^6 cells, available through Santa Cruz).” left out

[9] = versus undifferentiated ES cells

## N-benzyloxycarbonyl-Asp-Glu-Val-Asp fluoromethylketone (DEVD; HELM PEPTIDE1{[O=C(OCc1ccccc1)[*:2]].D.E.V.D.[FC[*:1]]}$$$$V2.0; SMILES CC(C)[C@H](NC(=O)[C@H](CCC(=O)O)NC(=O)[C@H](CC(=O)O)NC(=O)OCc1ccccc1)C(=O)N[C@@H](CC(=O)O)C(=O)CF) [DEVD.fmk]
Human ES cells [1]; human ES cells, p<0.01
  induction of differentiation as measured by Oct4 staining: dose dependent induction of differentiation
Human ES cells [1]; spindle-shaped cells after DEVD.fmk, data not shown
  Oct4 staining by immunocytochemistry: failed to stain for Oct4
Human ES cells [2]; after 3 days
  decrease in proliferation of human ES cells: no longer observed
Human ES cells [2]; first 48 hours after application
  proliferation of human ES cells: small decrease in proliferation
Human ES cells [3]; microarray, FIG. 7
  up-regulation of DKK4: over 170 fold
Human ES cells [3]; [9]
  upregulation of BMP4: 45 X
  upregulation of DKK4: 137 X
  upregulation of GATA-3: 9 X
  upregulation of WNT3: 3 X
  upregulation of WNT5A: 5 X
  upregulation of brachyury variant A: 73 X
Mouse embryos
  outgrowth: rind and core structures of extraembryonic endoderm overlying epiblast: always failed to produce prominent rind and core structures
[4]
  p85 PARP-1 fragment in Western blot analysis: disappearance
Human ES cells [5]; human ES cells incubated with caspase inhibitor
  time to differentiate into morphologically uniform mesendoderm cells: 2-3 days
Human ES cells [5]; human ES cells treated with DEVD.fmk
  cell morphology: differentiated to a spindle shape cell with a much smaller nuclear-cytoplasmic ratio
[6]
  caspase-3-like activity: reduced this activity
Mouse morulas; 200 μM DEVD.fmk
  development to expanded blastocysts: completely inhibiting development to expanded blastocysts
Mouse morulas; added to E2.0, E2.5, E3.0 mouse morulas, dose-dependent
  development of blastocysts: inhibited the development of blastocysts
[7]
  PARP-1 activity: upregulated
Human ES cells [8]
  rate of programmed cell death as measured by Annexin-V EGFP staining: dose-dependent reduction
